# From patent US4108726A, “Sarcoidosis test” (Research Corporation, priority 1976, dated 1978)
# Where a SMILES comes first, the peptide text is derived from it. The star is where a group is joined. Bz = O=C(c1ccccc1)*
# Experiments:
# [1] = system: porcine lung L-histidyl-L-leucine peptidase; conditions: Lee, Larue and Wilson 1971; cited from earlier work
# [2] = system: L-histidyl-L-leucine peptidase; test: Hydrolysis of L-histidyl-L-leucine by human serum peptidase, fluorimetric; assay type: biochemical; conditions: estimated from 1/v-1/S plots
# Method: Hydrolysis of the product L-histidyl-L-leucine was determined fluorimetrically by adding L-histidyl-L-leucine to an assay mixture which contained buffer and serum and was handled as described for the enzyme assays, including a zero time control. Hydrolysis was accompanied by a decrease in fluorescence from that obtained with the initial concentration as determined in the zero time control. The quantity hydrolyzed was determined by multiplying the fraction hydrolyzed (decrease in FI/initial FI) by the initial concentration. No correction was made for the fluorescence of L-histidine since it was only about 8% of the fluorescence of L-histidyl-L-leucine.
# The activity of the L-histidyl-L-leucine hydrolyzing activity was measured in several sera under the conditions of the orginal assay (50 μl sera in 125 μl 0.1 M K phosphate-0.3 M NaCl, pH 8.3) using as substrate 0.2 mM L-histidyl-L-leucine, a concentration typically formed in the angiotensin converting enzyme reaction mixture. […] The velocity of the L-histidyl-L-leucine peptidase reaction was determined at varying L-histidyl-L-leucine concentrations. The Km for L-histidyl-L-leucine of the peptidase was estimated from l/.nu.-l/S plots, see Lineweaver, H. and Burk, D. (1934). J. Amer. Chem. Soc. 56, 658, to be 0.16 mM. […]
# [3] = system: angiotensin converting enzyme of rabbit lung; conditions: rabbit lung enzyme system; Cushman and Cheung 1971; cited from earlier work
# [4] = target: serum angiotensin-converting enzyme (Homo sapiens, UniProt P12821); test: Spectrofluorimetric serum angiotensin converting enzyme assay with hippuryl-L-histidyl-L-leucine substrate; assay type: biochemical; conditions: FIG. 2
# serum angiotensin-converting enzyme, sequence (P12821 30-1232): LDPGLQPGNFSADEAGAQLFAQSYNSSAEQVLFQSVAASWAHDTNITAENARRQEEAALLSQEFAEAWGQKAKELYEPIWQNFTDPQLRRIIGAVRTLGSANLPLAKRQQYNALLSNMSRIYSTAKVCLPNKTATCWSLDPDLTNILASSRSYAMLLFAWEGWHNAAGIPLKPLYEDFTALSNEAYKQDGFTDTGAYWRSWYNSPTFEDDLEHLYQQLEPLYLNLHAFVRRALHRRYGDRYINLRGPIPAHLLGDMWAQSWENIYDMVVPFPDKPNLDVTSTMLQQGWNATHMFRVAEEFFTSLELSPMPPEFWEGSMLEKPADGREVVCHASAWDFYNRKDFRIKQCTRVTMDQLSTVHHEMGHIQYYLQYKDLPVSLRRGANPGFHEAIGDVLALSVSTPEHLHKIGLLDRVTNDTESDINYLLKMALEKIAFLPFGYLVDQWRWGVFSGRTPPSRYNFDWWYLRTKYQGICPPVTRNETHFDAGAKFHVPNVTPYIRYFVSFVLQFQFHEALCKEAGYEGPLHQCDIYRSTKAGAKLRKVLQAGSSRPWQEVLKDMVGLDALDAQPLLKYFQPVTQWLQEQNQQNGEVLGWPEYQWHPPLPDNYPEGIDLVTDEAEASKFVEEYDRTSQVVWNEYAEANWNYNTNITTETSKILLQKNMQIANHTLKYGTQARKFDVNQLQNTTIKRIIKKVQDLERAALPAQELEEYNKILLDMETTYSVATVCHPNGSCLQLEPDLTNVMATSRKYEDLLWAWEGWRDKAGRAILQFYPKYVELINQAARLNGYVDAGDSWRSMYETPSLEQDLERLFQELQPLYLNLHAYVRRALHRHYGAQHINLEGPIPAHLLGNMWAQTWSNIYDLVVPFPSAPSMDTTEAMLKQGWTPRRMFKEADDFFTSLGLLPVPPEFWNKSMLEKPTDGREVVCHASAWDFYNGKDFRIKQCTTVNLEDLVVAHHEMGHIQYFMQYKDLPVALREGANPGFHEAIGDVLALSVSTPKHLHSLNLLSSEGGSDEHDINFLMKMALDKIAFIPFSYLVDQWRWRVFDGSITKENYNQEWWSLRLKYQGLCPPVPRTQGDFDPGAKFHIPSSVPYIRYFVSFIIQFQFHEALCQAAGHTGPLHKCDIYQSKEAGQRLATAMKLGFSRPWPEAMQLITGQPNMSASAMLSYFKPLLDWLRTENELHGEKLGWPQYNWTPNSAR
# Method: Substrate-buffer solution was prepared by mixing buffer, substrate and water at a ratio of 1:1:2.8 (final concentration in the assay mixture; 0.1M K phosphate, pH 8.3, 0.3M NaCl; 5mM hippuryl-L-histidyl-L-leucine).
# Ten μl of serum was added to 240 μl of substrate-buffer solution at 37° C. in a 12 × 75 mm test tube tightly covered with Parafilm, mixed with a vortex mixer and incubated for 15 minutes at 37° C. Duplicate reaction mixtures were stopped by addition of 1.45 ml of 0.28 M NaOH and mixing with a vortex mixer. […] In order to keep the blank low, the development of fluorescence should be started as soon as possible after the addition of NaOH.
# One hundred μl of o-phthaldialdehyde reagent was added to each tube which was mixed with a vortex mixer. […] The fluorescence was read in a 1 cm rectangular fluorescence cuvette in a Perkin-Elmer MPF-4 fluorimeter with 8 mm entrance and exit slits and a 7.5 V energy output between 30 and 90 minutes after addition of HCl, during which time it was stable. The excitation wavelength was 360 nm and the emission fluorescence wavelength was 500 nm.
# Enzyme activity in nmoles L-histidyl-L-leucine/min/ml serum was calculated by two methods. The first is applicable for ratios of up to 2 of corrected assay/standard fluorescence. […]
# [5] = Apparent hydrolysis of hippuryl-L-histidyl-L-leucine in NaOH; assay type: physicochemical; conditions: 30 minutes between NaOH addition and fluorescence development
# Method: Ten μl of serum was added to 240 μl of substrate-buffer solution at 37° C. in a 12 × 75 mm test tube tightly covered with Parafilm, mixed with a vortex mixer and incubated for 15 minutes at 37° C. Duplicate reaction mixtures were stopped by addition of 1.45 ml of 0.28 M NaOH and mixing with a vortex mixer. A substrate-buffer blank was similarly treated at the same time except that enzyme was added immediately after NaOH, and was an important control for the slow breakdown of hippuryl-L-histidine-L-leucine in NaOH. In order to keep the blank low, the development of fluorescence should be started as soon as possible after the addition of NaOH.
# When large quantities of enzyme were used, this effect was small compared to the total fluorescence developed. However, the increase in fluorescence intensity of the blank in 30 minutes was equivalent to 1.3 nmol/min/ml and would result in a value 4% below the true one for an enzyme activity of 34 nmol/min/ml, which is in the normal range. To avoid spuriously high blanks due to base catalyzed hydrolysis, addition of NaOH to the blank, followed by enzyme, was made at the same time that NaOH was added to terminate the enzymatic reaction of the reacted samples.
# [6] = system: serum angiotensin converting enzyme; test: Serum angiotensin converting enzyme assay with angiotensin I as substrate; assay type: biochemical, human
# Method: Three mg of angiotensin I were dissolved in 10 ml buffer, 0.03125 M NaCl and 0.104 M potassium phosphate, pH 7.5. The optical density (O.D.) of the solution at 275 nM was measured against the buffer. The O.D. of the angiotensin I solution was adjusted to 0.272 by either adding more buffer or solid angiotensin I. Based on a mMolar extintion coefficient of 1.31 at 275 nM, the final concentration in the assay was 0.2 mM angiotensin I which is about 4-5 times the Km of this enzyme previously measured. Two hundred forty μl of the angiotensin I solution were added to each tube, then warmed to 37° C. […] of serum were added to each tube, sealed and incubated for 1 hour. […]
# For fluorescence development, 100 μl of 2% o-phthaldialdehyde in methanol were added to each tube and mixed with a vortex mixer. […] The fluorescence was read in a 1 cm rectangular fluorescence cuvette in a Perkin-Elmer MPF-4 fluorimeter with a 4 mm entrance and 8 mm exit slit and a 7.5 V energy output between 30-90 minutes after the addition of HCl, during which time the fluorescence was stable. The excitation wavelength was […] and the emission fluorescence wavelength was […].
# Calculation of enzymatic activity in nmoles L-histidyl-L-leucine released/min/ml of serum was calculated as follows: Angiotensin converting enzyme activity, nmole his-leu released/min/ml serum = [formula]
compound,measurement,setting,value
CC(C)C[C@H](NC(=O)[C@@H](N)Cc1c[nH]cn1)C(=O)O [L-histidyl-L-leucine] (H-His-Leu-OH),Km,[1],200 µM
same,Km,[2],160 µM
"CC(C)C[C@H](NC(=O)[C@H](Cc1c[nH]cn1)NC(=O)CNC(=O)c1ccccc1)C(=O)O [hippuryl-L-histidyl-L-leucine, Hippuryl-L-histidyl-L-leucine] (Bz-Gly-His-Leu-OH)",Km,[3],2600 µM
same,Substrate concentration above which inhibition was present,[3],above 10 mM
same,Substrate concentration at maximum activity,[4],5 mM
same,Substrate concentration at which inhibition was noted,[4],15 mM
same,"Increase in fluorescence intensity of the blank, as equivalent enzyme activity (base-catalyzed hydrolysis)",[5],1.3 nmol/min/mL
"angiotensin I (DRVYIHPFHL; Angiotensin-1; UniProt P01019 25-34, looked up) [decapeptide natural substrate of angiotensin converting enzyme]",Activity as substrate compared with hippuryl-L-histidyl-L-leucine,[6],considerably lower
